This is an account of results in patent US20180177849A1, “Therapeutic Uses of Elsiglutide” (HELSINN HEALTHCARE SA, priority 2015, published 2018).

The conditions of data set [1]: enzymatic degradation by DPP IV in addition to renal clearance; cited from earlier work.
Data set [2] deals with rats bearing colon tumors and xenografts bearing human colon carcinoma, HCT8 and HT-29. The data set is described as follows: Antitumor activity in tumor-bearing rodents. Format: in vivo. The conditions noted are these: 5-FU/irinotecan alone. As to the method: (§1) Studies were carried out in normal rats, rats bearing colon tumors and xenografts bearing human colon carcinoma, HCT8 and HT-29. Studies were carried out to test the hypothesis that elsiglutide offers selective protection against 5-Fluorouvacil-(5-FU) and irinotecan-induced toxicities and potentially enhances their antitumor activity. Elsiglutide was administered subcutaneously at non-toxic but therapeutically-effective dose of 1.8 mg/kg/day daily for 4 days, 30 min prior to each 5-FU/irinotecan dose. The tested doses of 5-FU were 100 mg/kg (MTD) and 200 mg/kg, and the doses of irinotecan were 100 mg/kg (MTD) and 200 mg/kg, either daily ×3 or weekly ×4.

The subject of data set [3] is Fischer rats. Nature of the data set: Complete blood cell count (CBC) analysis of peripheral blood. It counts as in vivo, rat. The protocol:
8 to 12-week-old female Fischer 344/N rats (body weight 160-200 g) were obtained from Harlan Sprague Dawley Inc. (Indianapolis, Ind.).
Irinotecan was purchased as a ready-to-use formulation solution at a concentration of 20 mg/ml (100 mg in a 5 ml vial). For a rat of 150-200 g, an administration up to 2 ml solution (dose of 200 mg/kg/d×3) was required.
(§2) Elsiglutide was administered by subcutaneous (S.C) route at 1.8 mg/kg/day once a day for 4 days. Three doses were administered 30 minutes prior to each daily intravenous (I.V) dose of irinotecan. Only the fourth dose of elsiglutide was administered 24 hours after the last dose of irinotecan. Irinotecan was administered by intravenous (I.V) injection at the maximum tolerated and therapeutic dose, 100, 150, 200 mg/kg/day for 3 days.
Hematological (CBC) Analysis • Complete blood cell count (CBC) analysis (days 0, 4, and 9) • From peripheral blood 14 markers, WBC (differential: neutrophils, lymphocytes, eosinophils, monocytes, basophils) and RDW-SD, RBC, HGB, HCT, MCV, MCH, MCHC, and Platelets were analyzed.
The statistical analysis of complete blood cells (CBC) results was carried out. The differences between the mean values in the different treatment groups were analyzed for significance.
(§3) Treatment groups and time when specific acquisition of tissues was obtained are outlined below. Fischer Rats (Female), weighing 150 to 180 g (8-12 weeks) were utilized. • Control, histology, d 9 and CBC, baseline, day 4 and day 9 • Control vehicle, histology, d 9 and CBC baseline, d 4 and d 9 • Irinotecan 100 mg/kg/d×3, I.V., histology, d 9 and CBC, baseline, d 4 and d 9 • Irinotecan 150 mg/kg/d×3, I.V., histology, d 9 and CBC, baseline, d 4 and d 9, and CBC, baseline, d 4 and d 9 • Irinotecan 200 mg/kg/d×3, I.V., histology 9, and CBC, d 4 and d 9 • Elsiglutide 1.8 mg/kg/d×4, S.C., histology, d 9 and CBC, baseline, d 4 and d 9 • CBC, baseline, d 4 and d 9 • Elsiglutide 1.8 mg/d×4, S.C+Irinotecan 150 mg/kg/d×3, I.V, histology, d 9, and CBD baseline, d 4 and d9 • Elsiglutide 1.8 mg/d×4, S.C.+Irinotecan 200 mg/kg/d×3, I.V, histology, d 9, and CBC d 4 and d 9 Each treatment groups consisted of 10 rats for histology of bone marrow, spleen and peripheral blood analysis, and for survivors. Evaluation of peripheral blood was carried out on day zero (0), four (4) and day nine (9), bone marrow and spleen analysis after (necropsy) was carried out on day nine (9).

The next data set relates to spleen of Fischer rats. The data set is described as follows: Histopathological evaluation of spleen. It counts as in vivo, rat. The conditions noted are these: Group 8, irinotecan 200 mg/kg i.v.; 5 dead animals. As to the method: (§4) The spleen and bone marrow of sternum of untreated Fischer rats and rats treated with irinotecan with 100, 150 and 200 mg/kg/d×3 alone and in combination with Elsiglutide (1.8 mg/kg/d×4) were examined histologically.
(§5) Histologic analysis using sternum bone marrow and spleen were carried out on day 9 (6 days after the administration of the last irinotecan dose on day 3). Bone marrow and spleen specimens were fixed in buffered formalin (10%) for 48 hours. The entire sternum and spleen were removed during autopsy at the end of the experiments on day 9. The samples were put in 10% buffered formalin for 48 hours in order to get appropriate fixation. After that the sternum was decalcified in a Rapid Decalcifier (RDO) from Apex Engineering Products Corporation (Aurora, Ill., USA) for 17 minutes when the sternum could be bent easily with fingers. When decalcification was complete, samples were taken out of solution and put under cold running water for 60 minutes to remove the decalcification solution containing hydrochloric acid as an active ingredient. Then the decalcified bone marrow and spleen specimen were processed, embedded in paraffin, cut (5 u) and stained conventionally with hematoxylin and eosin (HE). The HE stained slides were used for general orientation and evaluation under light microscope using various magnifications. […]

Data set [4] can be described thus: Protection against 5-FU- and irinotecan-induced toxicities. The conditions noted are these: in vivo; daily ×3 or weekly ×4. The arrangement: species or system mice and rats. As to the method: as §1
Data set [5] has as its system bone marrow of rat sternum. Nature of the data set: Histopathological evaluation of sternum bone marrow. The conditions noted are these: Group 8, irinotecan 200 mg/kg i.v.; 5 dead animals. It counts as in vivo. As to the method:
as §4, §5

Data set [6] relates to Fischer rats. The data set is described as follows: Survival / drug induced lethality. It counts as in vivo, rat. The conditions noted are these: for rats died because of toxicity: days 6 and 7. As to the method:
as §2
10 rats were assessed for survival up to 4 weeks after treatments. During the study, the kinetics of drug induced toxicities in animals (weight loss/gain, stomatitis, lethality were monitored daily during the first 2 weeks then twice a week thereafter up to 4 weeks in the survival phase. At the end of the survival phase the rats were sacrificed.
as §3

Where [7] appears, read: irinotecan 200 mg/kg/day × 3, 5 dead rats, day 6 and day 7.

As for Glucagon-like-peptide-2 [GLP-2(1-33)], the half-life result in data set [1] is “about 7 minutes”.

On to `CCc1c2c(nc3ccc(OC(=O)N4CCC(N5CCCCC5)CC4)cc13)-c1cc3c(c(=O)n1C2)COC(=O)[C@]3(O)CC` [Irinotecan], for which the “overall tumor growth inhibition” value in data set [2] was 30%. In addition, in the data set on Fischer rats [3] (FIG. 1, Day 4), the Platelet/Group result is “did not change” and the RBC/Group result is given as “did not change”. For the same compound, the WBC/group entry with Fischer rats [3] (FIG. 1, Day 4, after each dose of irinotecan) is given as “decreased”. In addition, the WBC/group result in the data set with Fischer rats [3] (FIG. 1, Day 9, irinotecan alone treated group) is “did not reach the normal level”. In addition, in the data set with Fischer rats [3] (FIG. 1, after 200 mg/kg irinotecan), the Platelet/Group count entry is “decreased”. In addition, in the data set on Fischer rats [3] (setting [7]), the “Eosinophils Mean Value” amounted to 0.42, the “Lymphocytes Mean Value” was 1.55, the “Monocytes Mean Value” turned out to be 0.05 and the WBC Mean Value was 2.18 10^3/µL. Besides, in the data set with Fischer rats [3] (irinotecan 200 mg/kg/day × 3, 5 dead rats, day 6 and day 7, in fL (unit assumed)), the “MCV Mean Value” is 47.96. Moreover, in the data set with Fischer rats [3] (irinotecan 200 mg/kg/day × 3, 5 dead rats, day 6 and day 7, in g/dL (unit assumed)), the “MCHC Mean Value” is on record as 36.52. The “extramedullary hematopoiesis in spleen” value with spleen of Fischer rats is “did not show any sign of extramedullary hematopoiesis”. In data set [4], this compound had an MTD of 100 mg/kg. Further, in data set [5], the “decrease (myelosuppression) in hematopoiesis of sternum bone marrow” value is 95-98%. Also, the rats died entry with Fischer rats [6] (Group 5, irinotecan 150 mg/kg i.v., day 8, 5 rats per group) is “One”. Besides, in the data set with Fischer rats [6] (Group 8, irinotecan 200 mg/kg i.v., day 7), the “animals died with severe diarrhea” value is reported as “One”. Also, the “rats in moribund condition with acute diarrhea” value with Fischer rats [6] (Group 8, irinotecan 200 mg/kg i.v., sacrificed before day 9) is 4. In the data set on Fischer rats [6] (irinotecan 150 mg/kg/d×3), the “rats died because of toxicity” value was 10%. Besides, the “rats died because of toxicity” value with Fischer rats [6] (irinotecan 200 mg/kg/d×3) is reported as “Fifty”. The “animals which survived treatment” value with Fischer rats [6] (irinotecan 200 mg/kg/d×3 alone or in combination with elsiglutide) was determined as 50%.

Regarding `O=c1[nH]cc(F)c(=O)[nH]1` [5-FU, 5-fluorouracil], in data set [2], the “overall tumor growth inhibition” value was found to be 30%. The MTD in data set [4] turned out to be 100 mg/kg.
